Laboratory results: patent US10675300B2, “Group 3 metal compounds and use thereof in the treatment of solid tumors” (UNIVERSITÀ DEGLI STUDI DI SALERNO, priority 2016, dated 2020)

System: DU145 (prostate cancer) and MDA.MB213 (Triple Negative breast cancer) cells
Test: MTT cell growth inhibition assay on human tumor cell lines
Format: cell-based
Conditions: 48 hours exposition; for IC50: read-out: DL50 (lethal dose 50, dose at which there is 50% of cell growth inhibition)
Description: (§1) FIG. 1 the evaluation of the inhibitory activity of CAM2 (a), CAM3 (b) and CAM4 (c) on the cell growth of DU145 cells in presence of different concentrations, determined by MTT assay. The cell viability was expressed as percentage of proliferated cells with respect to the cells treated with the different compounds and the same cells used as control and
as §1, with “2” for “1”, “MDA.MB231” for “DU145”, “control.” for “control and”
MDA.MB213—Human cell line of breast cancer acquired by ATCC (American Tissue Cell Colture—ATCC® HTB-26™), triple negative for ER receptor
DU145—Human cell line of prostate cancer acquired by ATCC (American Tissue Cell Colture—ATCC® HTB-81™)
MTT Cell Proliferation Assay Kit—Purchased by TREVIGEN—Catalog #4890-025-K
The compound was dissolved in a solution of DMSO concentrated at 100%, therefrom the dilutions programmed according to the scheme shown in figure A and B are obtained and in 96-multiwell plates 2×10^4 cells are deposited (plated).
After 24 hours the compounds under study in contact with the cells at the pre-established concentrations are used, in order to determine the lethal dose 50, that is the dose thereat there is 50% of cell growth inhibition.
After 48 hours of exposition to our compound, the growth inhibition effect is determined by means of a colorimetric assay.
The MTT assay is a measurement of sensitivity of cell proliferation based upon the decrease in the salt of tetrazolium, 3, [4,5-dimethyithiazol-2-]-2,5-diphenyl-bromide-tetrazolium (MTT).
(§2) Changes in the cell proliferative activity caused by our compounds can be quantified with MTT. MTT is reduced to an insoluble colouring agent, by the mitochondrial enzymes associated to the metabolic activity. MTT reduction is mainly due to the glycolytic activity inside the cell associated to the presence of NADH and NADPH.
The compound was dissolved in a solution of DMSO concentrated at 100%, therefrom the dilutions programmed according to the scheme shown in figure A and B are obtained, and in 96-multiwell plates 2×10^4 cells are deposited (plated).
After 24 hours the compounds under study in contact with the cells at pre-established concentrations are used, in order to determine the lethal dose 50, that is the dose thereat there is 50% of cell growth inhibition.
as §2, with “The MTT assay is a measurement of cell proliferation sensitivity based upon the reduction in the salt of tetrazolium, 3, [4,5-dimethylthiazol-2-]-2,5-diphenyl bromide-tetrazolium (MTT). Changes” for “Changes”
The compound was dissolved in a solution of DMSO concentrated at 100%, therefrom the dilutions programmed according to the scheme shown in A e B are obtained, in 96-multiwell plates 2×10^4 cells are deposited (plated).
as §2, with “MTT assay is a measurement of the cell proliferation sensitivity based upon the reduction in the salt of tetrazolium, 3, [4,5-dimethylthiazol-2-]-2,5-diphenyl bromide-tetrazolium (MTT). Changes” for “Changes”

[1] = cell line not specified (DU145 / MDA.MB213)
[2] = 5 μM, cell line not specified (DU145 / MDA.MB213)

Substance | growth inhibition (10 μM (higher concentrations), cell line not specified) | DL50 (lethal dose 50, dose at which there is 50% of cell growth inhibition) [1] | growth inhibition (lower concentrations (not specified), cell line not specified) | growth inhibition [2] | growth inhibition (40 μM (higher concentrations), cell line not specified) | IC50 [1] | growth inhibition (20 μM, cell line not specified (DU145 / MDA.MB213))
[Cp-CH2—C6H5—OCH3)]ScCl2 [CAM3] | 95% | 5/10 | 40% | – | – | – | –
[Cp-CH2—C6H5—OCH3]2ScCl [CAM4] | – | – | – | 14% | 88% | 20 µM | –
[Cp-CH2—C6H5—OCH3]2YCl [CAM2] | – | – | – | 58% | – | < 5 µM | 95%
